Entries after “also recorded” stand apart in the source; their conditions may differ.
What was measured:
Format in all cases: cell-based
HIV-1 virions = assay: Infectivity in CEM-GFP cells of virions produced in the presence of stapled peptides; conditions: virions from 293T cells, 5 ng p24, infection of CEM-GFP cells in the absence of stapled peptides; GFP and p24
Procedure: FIG. 11A and FIG. 11B show infectivity of virions in CEM GFP cells produced in 293T cells that were treated with various stapled peptide (at 5 μM concentration) or DMSO. Equal amounts of virions treated with stapled peptides were used to infect CEM-GFP cells and the infected cells were imaged on days 1, 3, 6, 9 and 12 (FIG. 11A) and subjected to p24 ALphaLisa (FIG. 11B). FIG. 11C and FIG. 11D show Infectivity of the virions produced in the presence of increasing concentrations of stapled peptide during production in 293T cells. The 293T cells transfected with pNL4-3 were treated with increasing concentrations of stapled peptides and equal amount of virions from these cells were used to infect CEM-GFP cells. The infected cells were imaged on day 6 (FIG. 11C) and subjected to p24 ALphaLisa (FIG. 11D).
To determine the infectivity of virions produced in the presence of DMSO (DMSO-V), SP-38 (SP38-V), SP-80 (SP80-V) and SP83-D225G (SP83-V), we used equal amounts (5 ng p24) of virions to infect CEM-GFP cells in the absence of stapled peptides (FIGS. 11a and c). […] Replication of the virus was monitored by GFP expression in […] and also by assaying for the production of p24 in the culture supernatants (FIGS. 11a-d).

HIV-1NL4-3 = assay: Multiday HIV-1 replication assay in CEM-GFP cells; conditions: CEM-GFP cells infected with HIV-1NL4-3; 1 and 5 micromolar peptide; GFP expression and p24 in culture supernatants
Description: FIG. 9A-FIG. 9C show an inhibition of HIV-1 replication by Stapled peptides in a multiday replication assay in CEM-GFP cells. […] FIG. 9B and FIG. 9C show images representing the expression of GFP in CEM GFP cells in presence or absence of 1 and 5 micromolar Stapled peptides or DMSO control. FIG. 9D and FIG. 9E show p24 ELISA analysis of culture supernatants from CEM-GFP cells from panels FIG. 9B and FIG. 9C samples. The CEM-GFP cells were infected with HIV-1NL4-3 and treated with stapled peptides. Culture supernatants were collected on multiple days as indicated and p24 analysis was carried out.
To determine if the stapled peptides can inhibit HIV-1 replication in cell culture, we used CEM-GFP cell lines, which harbor LTR-GFP as a reporter. HIV-1 infection of these cells activates GFP expression.

[1] = system: HIV-1 virion morphogenesis; assay: TEM analysis of morphology of virions produced in the presence of stapled peptides; conditions: ~200 virions each
Description: FIG. 12A-FIG. 12C show effects of stapled peptides on virion morphogenesis and incorporation of INI1. […] The middle panel is the expanded version and the lower panel represents the carton of the two viral particles from the middle panel. Note the empty capsid shell and eccentric electron dense material, typical of morphologically defective virions. […] About 200 virions each were scored to quantify four different types of morphological forms—Conical (Co), Eccentric (Ec), Immature (Im) and Unclear (Uc).
To determine if the virions produced in the presence of stapled peptides have similar defect in virion morphogenesis, we carried out TEM analysis of the virions (˜200 each).

[2] = system: reactivated HIV-1 from latent cells (J1.1); assay: Co-culture of PMA-reactivated latent J1.1 cells with CEM-GFP cells; set-up: inhibition of infection of CEM-GFP cells by reactivated virus (green cells): dose or concentration left out as unconfirmed; conditions: J1.1 + CEM-GFP co-culture; for inhibition of infection of CEM-GFP cells by reactivated virus (green cells): PMA, images day 2 postinduction; for inhibition of virus spread, p24 levels in culture: p24 on day 5
Description: FIG. 13A-FIG. 13C show staple peptides inhibit infection of reactivated HIV-1 from latent cells. […] Cells harboring latent virus (J1.1) were co-cultured with CEM-GFP cells in the presence and absence of stapled peptides. Addition of PMA reactivates HIV-1 from latent cells which infect CEM cells to induce expression of GFP. […] Images were taken on day 2 postinduction. […] Experiments was done in triplicates and the graph represents mean+/−SEM.
As a proof-of-concept to test if the stapled peptides inhibit spreading of the reactivated latent viruses, we used an in vitro cell line model of latency, J1.1 cells. J1.1 have a single latently integrated provirus which is activated using LRAs. We activated the latently integrated provirus by the addition of PMA and then mixed them with CEM-GFP cells in the cultures. Infection of CEM-GFP cells with virus produced from J1.1 upon reactivation turns the CEM-GFP T-cells green (FIGS. 13a and b right side panels). We tested the effect of addition of stapled peptides in this co-culture experiment (FIGS. 13a and b middle and left side panels). […] We furthermore determined the p24 released from the culture supernatant as a measure of the virus production in the presence and absence of stapled peptides (FIG. 13c).

[3] = system: HIV-1 particle production; assay: Particle production (p24) in 293T cells transfected with pNL4-3 in the presence of stapled peptides; conditions: p24 in virions and cell lysates
Procedure: FIG. 10A-FIG. 10B show the mechanism of HIV-1 inhibition by Stapled peptides. […] (1) Transfection of pNL4-3 plasmid in to 293T cells in the presence of stapled peptides and determine the particle production by analyzing p24 in the supernatant and cell lysates. (2) Virions produced are analyzed for their infectivity in the absence of stapled peptides. (3) Virions are subjected to Transmission Electron Microscopy (TEM) to determine the particle morphogenesis. (4) Purified and concentrated virions are subjected to Western blot analysis for the presence of INI1.
We hypothesized that INI1-derived Stapled peptides and drugs target IN and disrupt IN/RNA and IN/INI1 interactions. […] To test this hypothesis and to determine the mechanism of inhibition by stapled peptides, we tested the effect of stapled peptides on late events (production of HIV-1 particles and particle morphogenesis) and further tested the infectivity of particles that are produced (FIG. 10a).

| Substance | infectivity of virions produced in the presence of peptide (HIV-1 virions) | inhibition of HIV-1 propagation/replication (HIV-1NL4-3) | virion particle morphology [1] | inhibition of infection of CEM-GFP cells by reactivated virus (green cells) [2] | inhibition of virus spread, p24 levels in culture [2] | effect on particle production [3] |
| --- | --- | --- | --- | --- | --- | --- |
| lys-Leu-Met-Thr-Pro-Glu-Met-Phe-S5-Glu-Ile-Leu-S5-Cys-Asp-Leu-Asn [SP38] | defective for infection; also recorded: produced non-infection virions | Inhibits HIV-1 Replication at Low Micromolar Concentrations; also recorded: potently inhibited | large number of morphologically defective “eccentric” particles and very few conical capsids; also recorded: increased proportion of eccentric virions | inhibited the infection | inhibited the virus spread; also recorded: inhibits p24 levels in induced and uninduced conditions | did not affect |
| lys-Leu-Met-Thr-Pro-Glu-Met-Phe-S5-Glu-Ile-Leu-S5-Cys-Gly-Leu-Asn [SP83] | – | not | – | not | not | – |
